In patent US20170153257A1, “METHODS OF ESTIMATING LOGD OF TAGGED COMBINATORIAL LIBRARY COMPOUNDS” (DiCE Molecules SV, LLC, priority 2015, published 2017):
Entries after “also recorded” stand apart in the source; their conditions may differ. Residues, ends and D or L forms follow the SMILES beside them. {Stearyl} = n-C18 stearyl group added with a stearyl phosphoramidite

experiment: Reverse phase HPLC of steroids linked to a 220 base pair oligonucleotide (Agilent AdvanceBio Oligonucleotide column); format: physicochemical; details: 220 base pair conjugates, acetonitrile/10 mM ammonium acetate gradient
Procedure: HPLC purified 20 base pair single stranded oligomers operatively linked to alkyl or steroid ligands were transformed into a double stranded 220 base pair gene via polymerase chain reaction (PCR). The oligomers operatively linked to alkyl or steroid ligands and a 20 base pair reverse oligomer (1 uM) were used as PCR primers in a 100 uL reaction with 10 ng of double stranded 220 base pair gene template with 2× Fusion Flash High-Fidelity PCR Master Mix (ThermoFisher F548S). Thermocycling was performed at 98 C.° for 10 s, followed by 10 cycles of 98 C°, 1 s, 55 C°, 5 s, 72 C°, 10 s then followed by an additional protocol of 98 C.° for 10 s followed by 15 cycles of 98 C°, 1 s, 50 C°, 5 s, 72 C°, 10 s. PCR products of 220 base pair were confirmed via gel electrophoresis, purified with the QIAquick PCR Purification Kit (Qiagen) and DNA concentration was quantified via nanodrop A260 measurements.
Compounds 18-24, prepared as described in Example 10 from the analogous 20 base pair oligomers were run on a reverse phase HPLC column, using an Agilent AdvanceBio Oligonucleotide column and acetonitrile/ammonium acetate gradient. […] Without wishing to be bound by theory, inclusion of appropriate standard compounds may provide useful surrogates of absolute values of log D. It should be also noted that chromLogD and Chrom20LogD may be determined by extensions of the above experiment.

Row | Compound | resolution / elution by reversed phase HPLC
1 | acetate | eluting in the void volume

experiment: Gel mobility on agarose gel containing 0.9% CTAB/SOS vesicles; format: physicochemical; details: ligand attached to 5′ end of DNA; 1.5% agarose, 0.9% (w/v) CTAB/SOS vesicles; relative to reference gels lacking vesicles; FIG. 2
Procedure: Vesicles are prepared essentially as described by Pascoe et al., Electrophoresis 2003, 24: 4227-4240. Briefly, 0.45 gm of CTAB/SOS (CTAB=hexadecyltrimethylammonium bromide, Sigma catalogue #H9151; SOS=sodium octyl sulfate. Sigma catalogue #O4003)) at a ratio of 3:7 is dissolved in 1× TBE [Trisma-borate-EDTA electrophoresis buffer, Maniatis et al., p. 454] and heated to 50° C. in a water bath to assure dissolution. The solution is cooled overnight to room temperature and then filtered through a 0.2 micron filter. Vesicles prepared in this manner are reported to be stable for multiple days at room temperature.
Low melting agarose (0.75 gm) is dissolved in 25 mL 1× TBE and placed in a water bath at 50° C. along with a separate tube of vesicles. After equilibrium is reached, the tubes are mixed in a preheated flask, gently swirled and poured into a standard horizontal mini-gel apparatus to provide a vesicle agarose gel ((standard 1× TBE, 1.5% agarose, 0.9%). […]
FAM is 5′-6-FAM (Fluorescein). The 6-FAM moiety is comprised of a single isomer derivative of fluorescein and is the most commonly used fluorescent dye attachment for oligonucleotides and is compatible with most fluorescence detection equipment. It becomes protonated and has decreased fluorescence below pH 7; it is typically used in the pH range 7.5-8.5. […]

Row | Compound | mobility on agarose gel with vesicles
2 | Compound 1: stearyl (n-C18H37) group attached to 5′ end of DNA oligonucleotide X (SEQ. ID. No. 1) (DNA GCTCGTCGCATTCGGCACGC; DNA, 5' {Stearyl}, backbone and methylation of C not given here; further chemistry not fully specified) | greatly retard the mobility; also recorded: retarded

experiment: Gel mobility on standard agarose gel without vesicles; format: physicochemical; details: ligand attached to 5′ end of DNA; 1.5% agarose, no vesicles; FIG. 1
Procedure: Low melt agarose gels (standard 1× TBE, 1.5% agarose), without vesicles were prepared by conventional methods (Molecular Cloning: a Laboratory Manual, T. Maniatis, E. F. Fritsch & J. Sambrook (1982)).
After the gels have solidified, samples are loaded, run at 100 volts, stained with ethidium bromide and photographed by standard methods (Molecular Cloning; Maniatis et al.; Cold Spring Harbor press, 1982).

Row | Compound | mobility on standard agarose gel
3 | Compound 1: stearyl (n-C18H37) group attached to 5′ end of DNA oligonucleotide X (SEQ. ID. No. 1) (DNA GCTCGTCGCATTCGGCACGC; DNA, 5' {Stearyl}, backbone and methylation of C not given here; further chemistry not fully specified) | modestly retarded

experiment: eLogD by shake flask method in aqueous buffer/octanol mixture; details: linear peptides, N terminal acetylated and C terminal amide; pH 7.4, octanol-water
Source text: “eLogD,” as used herein, refers to a determination of LogD by shake flask method in aqueous buffer/octanol mixture.
“LogD(pH),” as used herein, refers to a distribution of a compound between aqueous buffer and octanol at a given pH. Unless otherwise stated, the pH is assumed to be 7.4 and be written as LogD.

Row | Compound | eLogD (7.4)
4 | Ac-ALLGF-NH2 [ALLGF] | 1.05
5 | Ac-YTGFL-NH2 [YTGFL] | 0.57
6 | CC[C@H](C)[C@H](NC(=O)[C@H](CC(C)C)NC(=O)[C@H](CO)NC(C)=O)C(N)=O [SLI] (Ac-Ser-Leu-Ile-NH2) | −0.06
7 | CC(=O)N[C@@H](C)C(=O)N[C@@H](Cc1ccc(O)cc1)C(=O)N[C@@H](CC(C)C)C(N)=O [AYL] (Ac-Ala-Tyr-Leu-NH2) | −0.06
8 | CC(=O)N[C@@H](CCCNC(=N)N)C(=O)N[C@@H](Cc1ccccc1)C(=O)N[C@@H](CC(C)C)C(N)=O [RFL] (Ac-Arg-Phe-Leu-NH2) | −1.12
9 | CC[C@H](C)[C@H](NC(C)=O)C(=O)N[C@@H](Cc1ccccc1)C(=O)N[C@@H](C)C(N)=O [IFA] (Ac-Ile-Phe-Ala-NH2) | 0.46
10 | CC[C@H](C)[C@H](NC(C)=O)C(=O)N[C@@H](CCSC)C(=O)N[C@@H](Cc1ccccc1)C(N)=O [IMF] (Ac-Ile-Met-Phe-NH2) | 1.25
11 | CC[C@H](C)[C@H](NC(=O)[C@H](CCC(=O)O)NC(C)=O)C(=O)N[C@@H](Cc1ccccc1)C(N)=O [EIF (D718)] (Ac-Glu-Ile-Phe-NH2) | −2.30
12 | CC(=O)N[C@@H](Cc1c[nH]c2ccccc12)C(=O)NCC(=O)NCC(N)=O [WGG] (Ac-Trp-Gly-Gly-NH2) | −0.80
